Consider 6 molecules from patent US4853230A, “Pharmaceutical formulations of acid labile substances for oral use” (priority 1986, dated 1989).

This series in a line: Rate of degradation/transformation of compounds in solution (half-life for the transformation to the active moiety) at pH 2 and 7. It is filed as physicochemical. Conditions: water solution. Here is the method: Rate of degradation/transformation of compounds
Half-life (mintues) for the
transformation to the active moiety
Also at neutral pH-values the degradation reaction proceeds rapidly, e.g. at pH=7 the half-life of degradation is between 10 minutes and 65 hours while at higher pH-values the stability in solution for most compounds is much better. The stability profile is similar in solid phase. The degradation is catalyzed by acid reacting substances. The acid labile compounds are stabilized in mixtures with alkaline reacting substances.

As for `COC(=O)c1cc2nc([S+]([O-])Cc3ncccc3C)[nH]c2cc1C` (centres unmarked), the half-life came to 11 min (at pH = 2) and 150 min (at pH = 7). In the case of `Cc1cnc(C[S+]([O-])c2nc3cc(C)ccc3[nH]2)c(C)c1` (centres unmarked), the half-life reads like this: (at pH = 2) 5.4 min; (at pH = 7) 1700 min.

Consider `COc1ccnc(C[S+]([O-])c2nc3cc(C(F)(F)F)ccc3[nH]2)c1` (centres unmarked), for which the half-life was 1.9 min (at pH = 2) and 122 min (at pH = 7). Consider `COc1ccnc(C[S+]([O-])c2nc3cc(C(F)(F)F)ccc3[nH]2)c1C` (centres unmarked), for which the half-life was determined as 2 min (at pH = 2) and 8.8 min (at pH = 7). As for `CCc1cnc(C[S+]([O-])c2nc3cc(OC)ccc3[nH]2)cc1Oc1ccccc1` (centres unmarked), the half-life is 3.7 min (at pH = 2) and 1620 min (at pH = 7).

Regarding `CCc1ccc2[nH]c([S+]([O-])Cc3nc4ccccc4n3C)nc2c1` (centres unmarked), under “at pH = 2”, the half-life was found to be 33 min.
